One may read the AC50 as the concentration at which the activity in the assay is half-maximal.

The target in the first test is T1, human PAH with the R408W mutation (A375 R408W cells) (Homo sapiens, UniProt P00439, R408W).
T1 construct: expressed in transfected cells
T1 sequence (P00439 1-452 R408W): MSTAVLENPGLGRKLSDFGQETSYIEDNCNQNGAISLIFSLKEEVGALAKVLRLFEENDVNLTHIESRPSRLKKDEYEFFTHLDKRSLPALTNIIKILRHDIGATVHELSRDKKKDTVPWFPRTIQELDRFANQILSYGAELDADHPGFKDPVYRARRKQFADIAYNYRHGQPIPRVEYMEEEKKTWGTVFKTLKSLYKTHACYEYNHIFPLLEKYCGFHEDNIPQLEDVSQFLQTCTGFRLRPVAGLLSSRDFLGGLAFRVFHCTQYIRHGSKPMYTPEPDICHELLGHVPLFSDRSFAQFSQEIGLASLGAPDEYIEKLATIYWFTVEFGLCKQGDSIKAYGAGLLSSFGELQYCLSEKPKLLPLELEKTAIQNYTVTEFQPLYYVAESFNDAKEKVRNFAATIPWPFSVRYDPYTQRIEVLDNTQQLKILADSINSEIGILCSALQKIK
Kind of test: Cell Based Phenylalanine Flux Assay. To be noted: A375 R408W cells; 24 hrs with compound, then 20 μM sepiapterin and 800 μM 13C9,15N-Phenylalanine for 4 hours; 13C-Tyrosine by LC-MS; average where tested multiple times. The gist of the method:
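LC-MS quantitation of 13C-tyrosine in media gave AC50 values. Stable A375 R408W PAH cells were preincubated 24 h with compound, then fed 800 μM labelled Phe plus 20 μM sepiapterin for 4 h. Dose curves were 10-point, tested in duplicate, averaged over repeat runs.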
Turning to `Cn1cc(-c2nnc(C(=O)N3CCc4[nH]cnc4[C@H]3c3nc4cc(F)ccc4o3)o2)c(C(F)(F)F)n1` [Example 118, (S)-(4-(5-fluorobenzo[d]oxazol-2-yl)-6,7-dihydro-1H-imidazo[4,5-c]pyridin-5(4H)-yl)(5-(1-methyl-3-(trifluoromethyl)-1H-pyrazol-4-yl)-1,3,4-oxadiazol-2-yl)methanone], the AC50 was not above 500 nM.

For `O=C(c1oc(C2(O)CCC2)nc1C(F)(F)F)N1CCc2[nH]cnc2[C@@H]1c1nc2cc(F)ccc2o1` [Example 586, (R)-(4-(5-fluorobenzo[d]oxazol-2-yl)-6,7-dihydro-1H-imidazo[4,5-c]pyridin-5(4H)-yl)(2-(1-hydroxycyclobutyl)-4-(trifluoromethyl)oxazol-5-yl)methanone], the AC50 was 1000 to 5000 nM.

Consider `O=C(c1oc(C2(O)CCC2)nc1C(F)F)N1CCc2[nH]cnc2[C@H]1c1nc2cc(F)ccc2o1` [Example 689, (S)-(4-(difluoromethyl)-2-(1-hydroxycyclobutyl)oxazol-5-yl)(4-(5-fluorobenzo[d]oxazol-2-yl)-6,7-dihydro-1H-imidazo[4,5-c]pyridin-5(4H)-yl)methanone], for which the AC50 was not above 500 nM.

For `C[C@@H](O)c1nc(C(F)F)c(C(=O)N2CCc3[nH]cnc3[C@@H]2c2nc3ccc(F)cc3o2)o1` [Example 240, (4-(difluoromethyl)-2-((R)-1-hydroxyethyl)oxazol-5-yl)((R)-4-(6-fluorobenzo[d]oxazol-2-yl)-6,7-dihydro-1H-imidazo[4,5-c]pyridin-5(4H)-yl)methanone], the AC50 was 1000 to 5000 nM.

In the case of `Cc1ccc2oc([C@@H]3c4nc[nH]c4CCN3C(=O)c3nnc(-c4ccc(F)cn4)o3)nc2c1` [Example 99, (S)-(5-(5-fluoropyridin-2-yl)-1,3,4-oxadiazol-2-yl)(4-(5-methylbenzo[d]oxazol-2-yl)-6,7-dihydro-1H-imidazo[4,5-c]pyridin-5(4H)-yl)methanone], the AC50 fell in the range of 500 to 1000 nM.

`CC(C)(O)c1nc(C(F)F)c(C(=O)N2CCc3[nH]cnc3[C@H]2c2nc3c(OC(F)(F)F)cccc3o2)o1` [Example 533, (S)-(4-(difluoromethyl)-2-(2-hydroxypropan-2-yl)oxazol-5-yl)(4-(4-(trifluoromethoxy)benzo[d]oxazol-2-yl)-6,7-dihydro-1H-imidazo[4,5-c]pyridin-5(4H)-yl)methanone]: the AC50 is not above 500 nM.

In the case of `Cc1ccc2oc([C@H]3c4nc[nH]c4CCN3C(=O)c3ocnc3C(F)(F)F)nc2c1` [Example 64, (R)-(4-(5-methylbenzo[d]oxazol-2-yl)-6,7-dihydro-1H-imidazo[4,5-c]pyridin-5(4H)-yl)(4-(trifluoromethyl)oxazol-5-yl)methanone], the AC50 is not above 500 nM.

For `CC(C)(O)c1nc(CF)c(C(=O)N2CCc3[nH]cnc3[C@H]2c2nc3cc(F)ccc3o2)o1` [Example 211, (S)-(4-(5-fluorobenzo[d]oxazol-2-yl)-6,7-dihydro-1H-imidazo[4,5-c]pyridin-5(4H)-yl)(4-(fluoromethyl)-2-(2-hydroxypropan-2-yl)oxazol-5-yl)methanone], the AC50 lay in the range of 500 to 1000 nM.

With `Cc1nc([C@H](C)O)oc1C(=O)N1CCc2[nH]cnc2[C@@H]1c1nc2cccc(F)c2o1` [Example 248, ((R)-4-(7-fluorobenzo[d]oxazol-2-yl)-6,7-dihydro-1H-imidazo[4,5-c]pyridin-5(4H)-yl)(2-((S)-1-hydroxyethyl)-4-methyloxazol-5-yl)methanone], the AC50 is 1000 to 5000 nM.

In the case of `CC(C)(O)c1nc(Cl)c(C(=O)N2CCc3[nH]cnc3[C@@H]2c2nc3c(F)cccc3o2)o1` [Example 273, (R)-(4-chloro-2-(2-hydroxypropan-2-yl)oxazol-5-yl)(4-(4-fluorobenzo[d]oxazol-2-yl)-6,7-dihydro-1H-imidazo[4,5-c]pyridin-5(4H)-yl)methanone], the AC50 was in the range of 1000 to 5000 nM.

Consider `CC(C)(O)c1nc(C(F)F)c(C(=O)N2CCc3[nH]cnc3[C@H]2c2nc3c(F)cc(F)cc3o2)o1` [Example 299, (S)-(4-(4,6-difluorobenzo[d]oxazol-2-yl)-6,7-dihydro-1H-imidazo[4,5-c]pyridin-5(4H)-yl)(4-(difluoromethyl)-2-(2-hydroxypropan-2-yl)oxazol-5-yl)methanone], for which the AC50 was not above 500 nM.

For the molecule `CC(F)(F)c1ncoc1C(=O)N1CCc2[nH]cnc2[C@H]1c1nc2ccc(F)cc2o1` [Example 649, (S)-(4-(1,1-difluoroethyl)oxazol-5-yl)(4-(6-fluorobenzo[d]oxazol-2-yl)-6,7-dihydro-1H-imidazo[4,5-c]pyridin-5(4H)-yl)methanone], the AC50 is not above 500 nM.

With `Cn1ccc(-c2nnc(C(=O)N3CCc4[nH]cnc4[C@@H]3c3nc4ccccc4o3)o2)n1` [Example 844, (R)-(4-(benzo[d]oxazol-2-yl)-6,7-dihydro-1H-imidazo[4,5-c]pyridin-5(4H)-yl)(5-(1-methyl-1H-pyrazol-3-yl)-1,3,4-oxadiazol-2-yl)methanone], the AC50 fell in the range of 500 to 1000 nM.

As for `O=C(c1ocnc1C(F)F)N1CCc2[nH]cnc2[C@@H]1c1nc2c(F)cc(F)cc2o1` [Example 302, (R)-(4-(4,6-difluorobenzo[d]oxazol-2-yl)-6,7-dihydro-1H-imidazo[4,5-c]pyridin-5(4H)-yl)(4-(difluoromethyl)oxazol-5-yl)methanone], the AC50 lay in the range of 1000 to 5000 nM.

As for `Cc1cccc2oc([C@H]3c4nc[nH]c4CCN3C(=O)c3cnco3)nc12` [Example 510, (R)-(4-(4-methylbenzo[d]oxazol-2-yl)-6,7-dihydro-1H-imidazo[4,5-c]pyridin-5(4H)-yl)(oxazol-5-yl)methanone], the AC50 was in the range of 1000 to 5000 nM.

For the molecule `O=C(c1cnn2cc(N3CCC(O)CC3)ccc12)N1CCc2[nH]cnc2[C@H]1c1nc2c(F)ccc(F)c2o1` [Example 895, (S)-(4-(4,7-difluorobenzo[d]oxazol-2-yl)-6,7-dihydro-1H-imidazo[4,5-c]pyridin-5(4H)-yl)(6-(4-hydroxypiperidin-1-yl)pyrazolo[1,5-a]pyridin-3-yl)methanone], the AC50 was in the range of 1000 to 5000 nM.

Consider `Cc1ccc(-c2nnc(C(=O)N3CCc4[nH]cnc4[C@@H]3c3nc4cc(F)ccc4o3)o2)nc1` [Example 125, (R)-(4-(5-fluorobenzo[d]oxazol-2-yl)-6,7-dihydro-1H-imidazo[4,5-c]pyridin-5(4H)-yl)(5-(5-methylpyridin-2-yl)-1,3,4-oxadiazol-2-yl)methanone], for which the AC50 lay within 1000 to 5000 nM.

With `O=C(c1cnco1)N1CCc2[nH]cnc2[C@@H]1c1nc2ccccc2o1` [Example 548, (R)-(4-(benzo[d]oxazol-2-yl)-6,7-dihydro-1H-imidazo[4,5-c]pyridin-5(4H)-yl)(oxazol-5-yl)methanone], the AC50 fell in the range of 1000 to 5000 nM.

For `CC(C)(O)c1nc(Cl)c(C(=O)N2CCc3[nH]cnc3[C@H]2c2nc3cc(F)ccc3o2)o1` [Example 129, (S)-(4-chloro-2-(2-hydroxypropan-2-yl)oxazol-5-yl)(4-(5-fluorobenzo[d]oxazol-2-yl)-6,7-dihydro-1H-imidazo[4,5-c]pyridin-5(4H)-yl)methanone], the AC50 was in the range of 500 to 1000 nM.

For `Cn1ccc(-c2nc(C(F)F)c(C(=O)N3CCc4[nH]cnc4[C@H]3c3nc4cccc(F)c4o3)o2)n1` [Example 591, (S)-(4-(difluoromethyl)-2-(1-methyl-1H-pyrazol-3-yl)oxazol-5-yl)(4-(7-fluorobenzo[d]oxazol-2-yl)-6,7-dihydro-1H-imidazo[4,5-c]pyridin-5(4H)-yl)methanone], the AC50 is not above 500 nM.

Regarding `CN(C)c1ccc2c(C(=O)N3CCc4[nH]cnc4[C@@H]3c3nc4cc(F)ccc4o3)cnn2c1` [Example 92, (R)-(6-(dimethylamino)pyrazolo[1,5-a]pyridin-3-yl)(4-(5-fluorobenzo[d]oxazol-2-yl)-6,7-dihydro-1H-imidazo[4,5-c]pyridin-5(4H)-yl)methanone], the AC50 was not below 5000 nM.

As to `Cc1ncoc1C(=O)N1CCc2[nH]cnc2[C@@H]1c1nc2ccccc2o1` [Example 794, (R)-(4-(benzo[d]oxazol-2-yl)-6,7-dihydro-1H-imidazo[4,5-c]pyridin-5(4H)-yl)(4-methyloxazol-5-yl)methanone], the AC50 was 1000 to 5000 nM.

Staying with this test, now noted: A375 cells expressing R408W PAH; 24 hrs with compound, then 20 μM sepiapterin and 800 μM 13C9,15N-Phenylalanine for 4 hours; 13C-Tyrosine by LC-MS; average where tested multiple times.
With `O=C(c1ccnn1-c1ccccn1)N1CCc2[nH]cnc2C1c1nc2cc(F)ccc2o1` (stereo not shown), the AC50 lay within 1000 to 5000 nM.

With `Cc1ccc2nc(C3c4nc[nH]c4CCN3C(=O)c3nnc(-c4ccc(F)cn4)o3)oc2c1` (stereo not shown), the AC50 lay in the range of 1000 to 5000 nM.

With `Cc1ccc2oc(C3c4nc[nH]c4CCN3C(=O)c3cnn4cc(CCN(C)C)ccc34)nc2c1` (stereo not shown), the AC50 is not below 5000 nM.

For the molecule `CN1C2CCC1CN(c1ccc3c(C(=O)N4CCc5[nH]cnc5C4c4nc5cc(F)ccc5o4)cnn3c1)C2` (single isomer, unassigned), the AC50 fell in the range of 1000 to 5000 nM.

On to `O=C(c1cnn2cc(CCN3CC(F)C3)ccc12)N1CCc2[nH]cnc2C1c1nc2cc(F)ccc2o1` (stereo not shown), for which the AC50 is not below 5000 nM.

For the molecule `O=C(c1nnc(N2CCOCC2)o1)N1CCc2[nH]cnc2C1c1nc2cc(F)ccc2o1` (stereo not shown), the AC50 was 1000 to 5000 nM.

In the case of `CC(C)(O)c1cc(C(=O)N2CCc3[nH]cnc3C2c2nc3ccc(F)cc3o2)on1` (stereo not shown), the AC50 lay in the range of 1000 to 5000 nM.

For the molecule `Cc1cccc2nc(C3c4nc[nH]c4CCN3C(=O)c3ccnn3C(C)C)oc12` (stereo not shown), the AC50 is not below 5000 nM.

Take `O=C(c1nnc(N2CC(F)C2)o1)N1CCc2[nH]cnc2C1c1nc2cc(F)ccc2o1` (stereo not shown): the AC50 is 1000 to 5000 nM.

Source of the values: patent publication US20250171437A1 (Agios Pharmaceuticals,Inc., priority 2022, published 2025).
